One data set has as its system microRNA-122. Kind of data set: De-repression of downstream mRNAs of microRNA-122 in mouse liver by CRN-containing antimir. Format: in vivo, mouse (BALB/c). The text has this:
The CRN-containing antimir CRN-Antimir-122-8a was synthesized by the methods of this invention. MicroRNA-122 is an miRNA shown to be liver-specific and involved in lipid metabolism and possibly hepatitis C virus replication. MicroRNA-122 regulates various downstream mRNAs. CRN-Antimir-122-8a is 16-mer oligonucleotide complementary to the 5′ end of microRNA-122 that can silence microRNA-122 and de-repress its downstream targets.
Liver and spleen were harvested.
The end points determined were expression of downstream genes AldoA (Aldolase A), P4H4 (Prolyl 4-hydroxylase gene), and SLC7A1 (Solute carrier family 7). Negative control was a mismatched Antimir-122 sequence.

A short description of data set [1]: Tolerability in mice: body weight, clinical signs, spleen weight, serum chemistry. The note with it: BALB/c mice.
Description: Treatment groups (n=5) were injected intravenously at a 10 mg/kg dose with a dosing schedule of Q1d×3 (every day for three consecutive days). Necropsy was performed at 24 h after the last dose. Body weights and clinical signs were monitored during the course of the study. Liver and spleen were harvested.
[2] abbreviates: 8-week old BALB/c mice, 10 mg/kg intravenously Q1d×3, necropsy 24 h after last dose.

As to “crnm5CsdCsdAscrnTscrnTsdGscrnTscrnm5CsdAscrnm5CsdAsdCsdTscrnm5Cscrnm5CsdA (antisense CCATTGTCACACTCCA; CRN nucleotides, phosphorothioate linkages; (1)..(16) Phosphorothioate linkage between nucleotides; modified_base (1)..(1) Conformationally restricted 5′-methyl nucleomonomer; modified_base (2)..(3) deoxy-nucleotide; modified_base (4)..(5) Conformationally restricted nucleomonomer; modified_base (6)..(6) deoxy-nucleotide; modified_base (7)..(7) Conformationally restricted nucleomonomer; modified_base (8)..(8) Conformationally restricted 5′-) [CRN-Antimir-122-8a]”, in the data set with microRNA-122 (setting [2]), the “de-repression in liver AldoA mRNA relative to buffer control” value is reported as “Up to 2.5 fold”, the “de-repression in liver P4H4 mRNA relative to buffer control” value was “Up to 1.5 fold” and the “de-repression in liver SLC7A1 mRNA relative to buffer control” value is given as “Up to 1.3 fold”. Also, the “de-repression of downstream genes ALDOA, SLC7A, P4H4 in the mouse model” value in the data set with microRNA-122 (mouse model, result in words) is reported as “demonstrated de-repression”. Besides, in data set [1] (10 mg/kg intravenously Q1d×3), the “alterations in liver and kidney enzymes” value was “No alterations”; the “body weight loss after dosing” value was “No body weight loss”; the “other serum chemistry parameters” value is on record as “within expected normal levels”; the tolerability entry was “well tolerated”. The “spleen weights relative to buffer control” value in data set [1] (10 mg/kg intravenously Q1d×3, necropsy 24 h after last dose) is “unaltered”.

The values above are taken from patent US9751909B2, “Synthesis and uses of nucleic acid compounds with conformationally restricted monomers” (Marina Biotech, Inc., priority 2011, dated 2017).
